Results reported in patent US9290536B2, “C4 monomethyl triterpenoid derivatives and methods of use thereof” (Reata Pharmaceuticals, Inc., priority 2011, dated 2016).

Tests used:
[1] = test system: IFNγ-induced NO production in RAW264.7; assay: Suppression of IFNγ-induced NO production in RAW264.7 mouse macrophages (Griess reagent, normalized to WST-1 cell viability); assay type: cell-based; details: RAW264.7 cells, 2 h pre-treatment with drug (0-200 nM), then IFNγ for 24 h
Description: Nitric Oxide Production and Cell Viability. […] On the next day, cells were pre-treated with DMSO or drug (0-200 nM dose range) for 2 hours, and then treated with recombinant mouse IFNγ (R&D Systems) for 24 hours. Nitric Oxide concentration in media was determined using the Griess reagent system (Promega). Cell viability was determined using WST-1 reagent (Roche). IC50 values were determined based on the suppression of IFNγ induced Nitric Oxide production normalized to cell viability.

NQO1-ARE = NQO1-ARE luciferase reporter assay in HuH7 cells (Nrf2 transcriptional activity); assay type: cell-based; details: Homo sapiens, Huh-7, 62.5 nM compound, 18 h, Firefly normalized to Renilla, over DMSO vehicle control
Description: NQO1-ARE Luciferase Reporter Assay.
This assay allows for quantitative assessment of the endogenous activity of the Nrf2 transcription factor in cultured mammalian cells. Expression of Firefly luciferase from NQO1-ARE luciferase reporter plasmid is controlled by binding of Nrf2 to a specific enhancer sequence corresponding to the antioxidant response element (ARE) that was identified in the promoter region of the human NADPH:quinone oxidoreductase 1 (NQO1) gene (Xie et al., 1995). The plasmid was constructed by inserting a sequence:
encompassing the human NQO1-ARE into the pLuc-MCS vector using HindIII/XhoI cloning sites (GenScript Corp., Piscataway, N.J.). The assay is performed in HuH7 cells maintained in DMEM (Invitrogen) supplemented with 10% FBS and 100 U/ml (each) of penicillin and streptomycin. For the assay, cells are plated in 96-well plates at 17,000 cells per well. Twenty four hours later, the cells are co-transfected with 50 ng each of NQO1-ARE reporter plasmid and pRL-TK plasmid using Lipofectamine 2000 transfection reagent (Invitrogen). pRL-TK plasmid constitutively expresses Renilla luciferase and is used as an internal control for normalization of transfection levels. Thirty hours after transfection, the cells are treated with compounds (at concentrations ranging from 0 to 1 μM) for eighteen hours. Firefly and Renilla luciferase activity is assayed by Dual-Glo Luciferase Assay (Promega Corp., Madison, Wis.), the luminescence signal is measured on an L-Max II luminometer (Molecular Devices). Firefly luciferase activity is normalized to the Renilla activity, and fold induction over a vehicle control (DMSO) of normalized Firefly activity is calculated. The fold induction at 62.5 nM concentration is used for comparing relative potencies of compounds to induce Nrf2 transcriptional activity. See Xie et al., 1995, which is incorporated herein by reference.

Question: For `COC(=O)[C@]12CCC(C)(C)C[C@H]1[C@H]1C(=O)C=C3[C@@]4(C)C=C(C#N)C(=O)[C@@H](C)[C@@H]4CC[C@@]3(C)[C@]1(C)CC2` [TX63435], which IC50 [1] is on record?
Answer: 1 nM

Question: What about the fold induction at 0.0625 µM (NQO1-ARE) of the same compound?
Answer: 7.2

Question: For `C[C@@H]1C(=O)C(C#N)=C[C@]2(C)C3=CC(=O)[C@@H]4[C@@H]5CC(C)(C)CC[C@]5(C(=O)O)CC[C@@]4(C)[C@]3(C)CC[C@@H]12` [TX63520], which IC50 [1] is on record?
Answer: 10.1 nM

Question: What about the fold induction at 0.0625 µM (NQO1-ARE) of the same compound?
Answer: 5.3

Question: With `C[C@@H]1C(=O)C(C#N)=C[C@]2(C)C3=CC(=O)[C@@H]4[C@@H]5CC(C)(C)CC[C@]5(C(=O)n5ccnc5)CC[C@@]4(C)[C@]3(C)CC[C@@H]12` [TX63522] as the compound, how does the IC50 [1] read?
Answer: 0.4 nM

Question: What about the fold induction at 0.0625 µM (NQO1-ARE) of the same compound?
Answer: 4.1

Question: What does the source list for `C[C@@H]1C(=O)C(C#N)=C[C@]2(C)C3=CC(=O)[C@@H]4[C@@H]5CC(C)(C)CC[C@]5(C(=O)NCC(F)(F)F)CC[C@@]4(C)[C@]3(C)CC[C@@H]12` [TX63523]?
Answer: IC50 [1]: 1 nM; fold induction at 0.0625 µM (NQO1-ARE): 5.6

Question: Which IC50 [1] does the source give for `C[C@@H]1C(=O)C(C#N)=C[C@]2(C)C3=CC(=O)[C@@H]4[C@@H]5CC(C)(C)CC[C@]5(CO)CC[C@@]4(C)[C@]3(C)CC[C@@H]12` [TX63545] here?
Answer: 0.7 nM

Question: And the fold induction at 0.0625 µM (NQO1-ARE)?
Answer: 7.2

Question: For `C[C@@H]1C(=O)C(C#N)=C[C@]2(C)C3=CC(=O)[C@]45OC(=O)[C@@]6(CCC(C)(C)C[C@H]64)CC[C@@]5(C)[C@]3(C)CC[C@@H]12` [TX63555], which IC50 [1] is on record?
Answer: 1.4 nM

Question: And the fold induction at 0.0625 µM (NQO1-ARE)?
Answer: 6.1

Question: For `Cc1nnc([C@]23CCC(C)(C)C[C@H]2[C@H]2C(=O)C=C4[C@@]5(C)C=C(C#N)C(=O)[C@@H](C)[C@@H]5CC[C@@]4(C)[C@]2(C)CC3)o1` [TX63616], which IC50 [1] is on record?
Answer: 0.7 nM

Question: What about the fold induction at 0.0625 µM (NQO1-ARE) of the same compound?
Answer: 4.4

Question: With `C[C@@H]1C(=O)C(C#N)=C[C@]2(C)C3=CC(=O)[C@@H]4[C@@H]5CC(C)(C)CC[C@]5(NC(=O)C(C)(F)F)CC[C@@]4(C)[C@]3(C)CC[C@@H]12` [TX63682] as the compound, how does the IC50 [1] read?
Answer: 1.1 nM

Question: What about the fold induction at 0.0625 µM (NQO1-ARE) of the same compound?
Answer: 5.7

Question: `COC(=O)[C@]12CCC(C)(C)C[C@H]1[C@H]1C(=O)C[C@@H]3[C@@]4(C)C=C(C#N)C(=O)[C@@H](C)[C@@H]4CC[C@@]3(C)[C@]1(C)CC2` [TX63749] was tested. Which IC50 [1] did it give?
Answer: 3 nM

Question: And the fold induction at 0.0625 µM (NQO1-ARE)?
Answer: 2.3

Question: `COCCC[C@]12CCC(C)(C)C[C@H]1[C@H]1C(=O)C=C3[C@@]4(C)C=C(C#N)C(=O)[C@@H](C)[C@@H]4CC[C@@]3(C)[C@]1(C)CC2` [TX63919] was tested. Which IC50 [1] did it give?
Answer: 1.4 nM

Question: Which IC50 [1] does the source give for `CC(=O)OCCC[C@]12CCC(C)(C)C[C@H]1[C@H]1C(=O)C=C3[C@@]4(C)C=C(C#N)C(=O)[C@@H](C)[C@@H]4CC[C@@]3(C)[C@]1(C)CC2` [TX63920] here?
Answer: 0.9 nM

Question: How did the IC50 [1] turn out when `C[C@@H]1C(=O)C(C#N)=C[C@]2(C)C3=C[C@@H](O)[C@@H]4[C@@H]5CC(C)(C)CC[C@]5(CO)CC[C@@]4(C)[C@]3(C)CC[C@@H]12` [TX63923] was run?
Answer: 2.5 nM

Question: For `C[C@@H]1C(=O)C(C#N)=C[C@]2(C)C3=CC(=O)[C@@H]4[C@@H]5CC(C)(C)CC[C@]5(O)CC[C@@]4(C)[C@]3(C)CC[C@@H]12` [TX63925], which IC50 [1] is on record?
Answer: 0.4 nM

Question: Which IC50 [1] does the source give for `CC(=O)O[C@]12CCC(C)(C)C[C@H]1[C@H]1C(=O)C=C3[C@@]4(C)C=C(C#N)C(=O)[C@@H](C)[C@@H]4CC[C@@]3(C)[C@]1(C)CC2` [TX63928] here?
Answer: 0.6 nM

Question: How did the IC50 [1] turn out when `C[C@@H]1C(=O)C(C#N)=C[C@]2(C)C3=CC(=O)[C@@H]4[C@@H]5CC(C)(C)CC[C@]5(OC(N)=O)CC[C@@]4(C)[C@]3(C)CC[C@@H]12` [TX63929] was run?
Answer: 0.5 nM

Question: `C[C@@H]1C(=O)C(C#N)=C[C@]2(C)C3=CC(=O)[C@@H]4[C@@H]5CC(C)(C)CC[C@]5(F)CC[C@@]4(C)[C@]3(C)CC[C@@H]12` [TX63936] was tested. Which IC50 [1] did it give?
Answer: 1.1 nM

Question: With `CCNC(=O)OCCC[C@]12CCC(C)(C)C[C@H]1[C@H]1C(=O)C=C3[C@@]4(C)C=C(C#N)C(=O)[C@@H](C)[C@@H]4CC[C@@]3(C)[C@]1(C)CC2` [TX63982] as the compound, how does the IC50 [1] read?
Answer: 3.5 nM
